For assay [1], the target named is T1, estrogen receptor alpha (ESR1) (Homo sapiens, UniProt P03372).
T1 construct: endogenous in cells; host or cells: MCF7 breast cancer cells
T1 sequence (P03372 1-595): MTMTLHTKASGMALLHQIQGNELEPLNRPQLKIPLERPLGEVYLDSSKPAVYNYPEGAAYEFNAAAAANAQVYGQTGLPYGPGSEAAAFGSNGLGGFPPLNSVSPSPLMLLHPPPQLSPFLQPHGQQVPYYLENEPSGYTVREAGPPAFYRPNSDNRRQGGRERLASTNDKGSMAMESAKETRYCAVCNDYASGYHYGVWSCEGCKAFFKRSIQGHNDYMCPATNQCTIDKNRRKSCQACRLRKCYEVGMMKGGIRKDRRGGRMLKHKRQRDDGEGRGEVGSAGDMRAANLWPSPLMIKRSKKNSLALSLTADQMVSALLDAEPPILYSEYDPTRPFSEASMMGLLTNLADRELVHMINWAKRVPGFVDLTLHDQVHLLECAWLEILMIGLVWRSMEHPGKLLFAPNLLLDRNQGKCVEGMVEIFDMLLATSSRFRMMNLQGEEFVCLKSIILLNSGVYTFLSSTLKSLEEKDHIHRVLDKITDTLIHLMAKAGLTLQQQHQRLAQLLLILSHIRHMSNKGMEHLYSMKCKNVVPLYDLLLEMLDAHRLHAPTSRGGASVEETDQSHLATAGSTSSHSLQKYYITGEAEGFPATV
Kind of assay: Breast Cancer Cell ERa High Content Fluorescence Imaging Degradation Assay (Example 901). Format: cell-based. The following applies: Table 1a; MCF7 breast cancer cells, 4 hours; plateau of the maximal effect; DMSO and Fulvestrant define 0% and 100% changes in ESR1. Here is the method:
MCF7 breast cancer cells were seeded on day 1 at a density of 10,000 cells per well in 384 well poly-lysine coated tissue culture plate (Greiner # T-3101-4), in 50 μL/well RPMI (phenol red free), 10% FBS (Charcoal stripped), containing L-glutamine. On day 2, compounds were prepared at 2 compound source concentrations: 100 μM and 1 μM (ultimately to give 2 overlapping titration curves), in a Labcyte low dead volume plate, 10 μL/well, and 10 μL of DMSO in designated wells for backfill, and 5 μM Fulvestrant (control compound) in designated wells. Compounds and controls were dispensed using a Labcyte Echo acoustic dispenser to dispense compounds with a predefined serial dilution (1.8×, 10 point, in duplicate) and appropriate backfill and control compounds (final total volume transferred was 417.5 nL and compound dispense volume ranges from 2.5 nL to 417.5 nL; 0.84% DMSO (v/v) final), ultimately producing a concentration range from 0.05 nM to 835 nM. Cell plates were incubated at 37° C., for 4 hours. Fixation and permeabilization were carried out using a Biotek EL406 plate washer and dispenser as follows. Cells were fixed by addition of 15 μL of 16% paraformaldehyde (Electron Microscopy Sciences #15710-S) directly to the 50 μL cell culture medium in each well using the peristaltic pump 5 μL cassette on a Biotek EL406 (final concentration of formaldehyde was 3.7% w/v). Samples were incubated 30 minutes. Well contents was aspirated and 50 μL/well of Phosphate Buffered Saline (PBS) containing 0.5% w/v bovine serum albumen, 0.5% v/v Triton X-100 (Antibody Dilution Buffer) was added to each well. Samples were incubated for 30 minutes. Well contents were aspirated and washed 3 times with 100 μL/well of PBS. Immunofluorescence staining of estrogen receptor alpha (ESR1) was carried out using a Biotek EL406 plate washer and dispenser as follows. The well supernatant was aspirated from the wells and 25 μL/well of anti-ESR1 mAb (F10) (Santa Cruz sc-8002) diluted 1:1000 in Antibody Dilution Buffer was dispensed. Samples were incubated for 2 hours at room temperature. Samples were washed 4 times with 100 μL/well of PBS. 25 uL/well of secondary antibody solution (Alexafluor 488 conjugate anti-mouse IgG (LifeTechnologies #A21202) diluted 1:1000 and Hoechst 33342 1 μg/ml diluted in Antibody Dilution Buffer) were dispensed into each well. Samples were incubated for 2 hours at room temperature. Samples were washed 3 times with 100 μL/well of PBS using a Biotek EL406. Quantitative fluorescence imaging of ESR1 was carried out using a Cellomics Arrayscan V (Thermo). Fluorescence images of the samples (Channel 1: XF53 Hoechst (DNA stain); Channel 2: XF53 FITC (ESR1 stain)) were acquired using a Cellomics VTI Arrayscan using the Bioapplication “Compartmental Analysis” using the auto-exposure (based on DMSO control wells) setting “peak target percentile” set to 25% target saturation for both channels. Channel 1 (DNA stain) was used to define the nuclear region (Circ). Measurements of “Mean_CircAvgIntCh2”, which is the Alexafluor 488 fluorescence intensity (ESR1) within the nuclear region, was measured on a per cell basis and averaged over all the measured cells. Data analysis was carried out using Genedata Screener Software, with DMSO and 5 nM Fulvestrant treated samples being used to define the 0% and 100% changes in ESR1. The “Robust Fit” method was used to define the inflexion point of curve (EC50) and the plateau of the maximal effect (Sinf). Degradation data for exemplary Formula I compounds is reported as ER-alpha MCF7 HCS Sinf(%) values in Table 1.

For a further assay, the system named is MCF7 cells. Kind of assay: In vitro cell proliferation assays (Examples 902 and 903), MCF7. The following applies: Homo sapiens, MCF7, Table 1a, read-out: ER-alpha MCF7 HCS (EC50). Format: cell-based. Here is the method:
Efficacy of estrogen receptor modulator compounds and chemotherapeutic compounds are measured by a cell proliferation assay employing the following protocol (Mendoza et al (2002) Cancer Res. 62:5485-5488).
The CellTiter-Glo® Luminescent Cell Viability Assay is a homogeneous method to determine the number of viable cells in culture based on quantitation of the ATP present, which signals the presence of metabolically active cells. The CellTiter-Glo® Assay is designed for use with multiwell plate formats, making it ideal for automated high-throughput screening (HTS), cell proliferation and cytotoxicity assays. The homogeneous assay procedure involves adding a single reagent (CellTiter-Glo® Reagent) directly to cells cultured in serum-supplemented medium. Cell washing, removal of medium or multiple pipetting steps are not required. The Cell Titer-Glo® Luminescent Cell Viability Assay, including reagents and protocol are commercially available (Promega Corp., Madison, Wis., Technical Bulletin TB288).
The assay assesses the ability of compounds to enter cells and inhibit cell proliferation. The assay principle is based on the determination of the number of viable cells present by quantitating the ATP present in a homogenous assay where addition of the Cell TiterGlo® reagent results in cell lysis and generation of a luminescent signal through the luciferase reaction. The luminescent signal is proportional to the amount of ATP present.
Procedure: Day 1—Seed Cell Plates (384-well black, clear bottom, microclear, TC plates with lid from Falcon #353962), Harvest cells, Seed cells at 1000 cells per 54 μl per well into 384 well Cell Plates for 3 days assay. Cell Culture Medium: RPMI or DMEM high glucose, 10% Fetal Bovine Serum, 2 mM L-Glutamine, P/S. Incubate 0/N (overnight) at 37° C., 5% CO2.
Day 2—Add Drug to Cells, Compound Dilution, DMSO Plates (serial 1:2 for 9 points). Add 20 μl of compound at 10 mM in the 2nd column of 96 well plate. Perform serial 1:2 across the plate (10 μl+20 μl 100% DMSO) for a total of 9 points using Precision Media Plates 96-well conical bottom polypropylene plates from Nunc (cat.#249946) (1:50 dilution). Add 147 μl of Media into all wells. Transfer 3 μl of DMSO+compound from each well in the DMSO Plate to each corresponding well on Media Plate using Rapidplate® (Caliper, a Perkin-Elmer Co.). For 2 drug combination studies, transfer one drug 1.5 μl of DMSO+compound from each well in the DMSO Plate to each corresponding well on Media Plate using Rapidplate. Then, transfer another drug 1.5 μl to the medium plate.
Drug Addition to Cells, Cell Plate (1:10 dilution): Add 6 μl of media+compound directly to cells (54 μl of media on the cells already). Incubate 3 days at 37° C., 5% CO2 in an incubator that will not be opened often.
Day 5—Develop Plates, Thaw Cell Titer Glo Buffer at room temperature: Remove Cell Plates from 37° C. and equilibrate to room temperature for about 30 minutes. Add Cell Titer-Glo® Buffer to Cell Titer-Glo® Substrate (bottle to bottle). Add 30 μl Cell Titer-Glo® Reagent (Promega cat.# G7572) to each well of cells. Place on plate shaker for about 30 minutes. Read luminescence on Analyst HT Plate Reader (half second per well).
Cell viability assays and combination assays: Cells were seeded at 1000-2000 cells/well in 384-well plates for 16 h. On day two, nine serial 1:2 compound dilutions were made in DMSO in a 96 well plate. The compounds were further diluted into growth media using a Rapidplate® robot (Zymark Corp., Hopkinton, Mass.). The diluted compounds were then added to quadruplicate wells in 384-well cell plates and incubated at 37° C. and 5% CO2. After 4 days, relative numbers of viable cells were measured by luminescence using Cell Titer-Glo® (Promega) according to the manufacturer's instructions and read on a Wallac Multilabel Reader® (PerkinElmer, Foster City). EC50 values were calculated using Prism® 4.0 software (GraphPad, San Diego). […]

In general, EC50 refers to the concentration that produces a half-maximal response. With `C[C@@H]1Cc2c([nH]c3ccccc23)[C@@H](c2c(F)cc([C@H](F)C3CN(CCCF)C3)cc2F)N1CC(C)(C)F` [Compound 103, (1R,3R)-1-(2,6-difluoro-4-((R)-fluoro(1-(3-fluoropropyl)azetidin-3-yl)methyl)phenyl)-2-(2-fluoro-2-methylpropyl)-3-methyl-2,3,4,9-tetrahydro-1H-pyrido[3,4-b]indole], the “ER-alpha MCF7 HCS (S inf)” value in assay [1] was −94.25%. Also, the EC50 with MCF7 cells came to 0.12 nM.

Turning to `C[C@@H]1Cc2c([nH]c3ccccc23)[C@@H](c2c(F)cc(C(O)C3CN(CCCF)C3)cc2F)N1CC(F)(F)CO` (stereo partly drawn) [Compound 106, 3-((1R,3R)-1-(2,6-difluoro-4-((1-(3-fluoropropyl)azetidin-3-yl)(hydroxy)methyl)phenyl)-3-methyl-1,3,4,9-tetrahydro-2H-pyrido[3,4-b]indol-2-yl)-2,2-difluoropropan-1-ol], the “ER-alpha MCF7 HCS (S inf)” value in assay [1] was −98.3%. The EC50 with MCF7 cells was determined as 0.035 nM.

`C[C@@H]1Cc2c([nH]c3ccccc23)[C@@H](c2c(F)cc(C(O)C3CN(CCCF)C3)cc2F)N1C[C@@](C)(F)CO` (stereo partly drawn) [Compound 107, (2R)-3-((1R,3R)-1-(2,6-difluoro-4-((1-(3-fluoropropyl)azetidin-3-yl)(hydroxy)methyl)phenyl)-3-methyl-1,3,4,9-tetrahydro-2H-pyrido[3,4-b]indol-2-yl)-2-fluoro-2-methylpropan-1-ol]: in assay [1], the “ER-alpha MCF7 HCS (S inf)” value was −94.23%. Also, in the assay with MCF7 cells, the EC50 is 0.107 nM.

With `C[C@@H]1Cc2c([nH]c3ccccc23)[C@@H](c2c(F)cc(C(O)C3CN(CCCF)C3)cc2F)N1C[C@](C)(F)CO` (stereo partly drawn) [Compound 108, (2S)-3-((1R,3R)-1-(2,6-difluoro-4-((1-(3-fluoropropyl)azetidin-3-yl)(hydroxy)methyl)phenyl)-3-methyl-1,3,4,9-tetrahydro-2H-pyrido[3,4-b]indol-2-yl)-2-fluoro-2-methylpropan-1-ol], the “ER-alpha MCF7 HCS (S inf)” value in assay [1] is recorded as −96.34%. Moreover, in the assay on MCF7 cells, the EC50 is 0.056 nM.

Turning to `C[C@@H]1Cc2c([nH]c3ccccc23)[C@@H](c2c(F)cc(C(O)C3CN(CCCF)C3)cc2F)N1CC(F)(F)F` (stereo partly drawn) [Compound 109, (3,5-difluoro-4-((1R,3R)-3-methyl-2-(2,2,2-trifluoroethyl)-2,3,4,9-tetrahydro-1H-pyrido[3,4-b]indol-1-yl)phenyl)(1-(3-fluoropropyl)azetidin-3-yl)methanol], the “ER-alpha MCF7 HCS (S inf)” value in assay [1] is listed as −98.1%. The concentration giving a half-maximal response (EC50) in the assay on MCF7 cells stood at 0.23 nM.

Consider `C[C@@H]1Cc2c([nH]c3ccccc23)[C@@H](c2c(F)cc(C(O)C3CN(CCCF)C3)cc2F)N1CC(F)F` (stereo partly shown) [Compound 110], for which the “ER-alpha MCF7 HCS (S inf)” value in assay [1] was −98.4%. For the same compound, the EC50 in the assay on MCF7 cells was 0.082 nM.

Consider `C[C@@H]1Cc2c([nH]c3ccccc23)[C@@H](c2c(F)cc([C@H](O)C3CN(CCCF)C3)cc2F)N1CC(C)(C)F` [Compound 111, (R)-(3,5-difluoro-4-((1R,3R)-2-(2-fluoro-2-methylpropyl)-3-methyl-2,3,4,9-tetrahydro-1H-pyrido[3,4-b]indol-1-yl)phenyl)(1-(3-fluoropropyl)azetidin-3-yl)methanol], for which, in assay [1], the “ER-alpha MCF7 HCS (S inf)” value is reported as −95.97%. In the assay with MCF7 cells, the EC50 stood at 0.066 nM.

On to `C[C@@H]1Cc2c([nH]c3ccccc23)[C@@H](c2c(F)cc([C@@H](O)C3CN(CCCF)C3)cc2F)N1CC(C)(C)F` [Compound 112, (S)-(3,5-difluoro-4-((1R,3R)-2-(2-fluoro-2-methylpropyl)-3-methyl-2,3,4,9-tetrahydro-1H-pyrido[3,4-b]indol-1-yl)phenyl)(1-(3-fluoropropyl)azetidin-3-yl)methanol], for which the “ER-alpha MCF7 HCS (S inf)” value in assay [1] is on record as −99.15%. Further, the EC50 in the assay on MCF7 cells is 0.05 nM.
